Assay results: publication PMC10987521, “An all-in-one tetrazine reagent for cysteine-selective labeling and bioorthogonal activable prodrug construction” (Nature Communications, 2024)
“Also recorded” adds a separate entry of the source. Read-outs that look alike come from different tables or passages of the source. Values belong to the molecule of their own block, whether it stands above or below them.

Tests used:
[1] = format: physicochemical; settings: for intact (%) under 10 mM GSH: 520 nm HPLC–MS (PyTz UV–Vis)
Method: All tetrazine compounds were diluted to a concentration of 50 μM or 2 μM using PBS (10% DMSO, pH 7.4). A stock solution of GSH (400 mM in PBS) was then added to achieve a final concentration of 10 mM. The mixture was homogenized and incubated at 37 °C for 12 h. The stability of the compounds (including all peptide conjugates and PmTz) was assessed by measuring the decrease in peak area at 520 nm (with the initial peak area at 0 min defined as 100%). This measurement was monitored by HPLC–MS. Similarly, the stability of PyTz was determined by monitoring the decrease in peak intensity at 520 nm using UV–Vis. Statistical analysis was performed on data from three replicates to calculate the mean and standard deviation. […]
Response 1: We appreciate your comment. We conducted stability tests on RGD-Dox and RGD-SN-38 in 10 mM GSH at a concentration of 2 μM, which is below the critical micelle concentrations. After incubating at 37 °C for 12 hours, we observed that 95% of RGD-Dox and 85% of RGD-SN-38 remained intact. This stability is slightly less than […]
the observed stability is intrinsic to the peptide-drug conjugates, with a slight enhancement due to micelle […]
concentrations, after 12 hours of incubation at 37 °C (Figure S46). […]
intrinsic to the PDCs, with a slight enhancement by micelle formation.
Details of these experiments have been included in the Supplementary Information (Page S42), as outlined below:
RGD-Dox and RGD-SN-38 were diluted to a concentration of 2 μM using PBS (10% DMSO, pH 7.4). A stock solution of GSH (400 mM in PBS) was then added to achieve a final concentration of 10 mM. The mixture was homogenized and incubated at 37 °C for 12 hours. Stability was assessed by measuring the decrease in peak area at 520 nm (with the initial peak area at 0 min defined as 100%). This measurement was monitored by HPLC–MS. Statistical analysis was performed on data from three replicates to calculate the mean and standard deviation.

B16F10 melanoma tumor = assay: In vivo anticancer efficacy, subcutaneous B16F10 melanoma tumor model; design: species or system BALB/c nude mice; settings: four i.v. courses, 3.67 μmol·kg^−1 (TCO-P4 36.7 μmol·kg^−1), n = 5
Method: Tumor-bearing mice were established by subcutaneously injecting a suspension of 5 × 10^5 B16F10 cells per mouse into the front flank of each nude mouse. When tumor volume reached 50−70 mm^3, the animals were randomly divided into five groups (n = 5). The mice were administered different compounds suspended in PBS via the tail vein every 3 days for a total of four times.
The mice underwent four treatment courses on day 0, day 3, day 6, and day 9. Tumor size and body weight were measured every day. Tumor volume was calculated via the following formula: V = 1/2 × (minor axis) × (major axis)[2].
After 12 days, the mice were sacrificed and dissected to obtain tumor tissues and main organs, including heart, liver, spleen, lung, and kidney. Subsequently, all tissues were fixed in a 4% paraformaldehyde solution, routinely paraffin-embedded and sectioned, and then stained with hematoxylin and eosin, as well as using TdT-mediated dUTP nick-end labeling (TUNEL) for subsequent pathological analysis. TUNEL-positive cells appeared fluorescent green, representing the apoptosis of tumor cells (nuclei were fluorescent blue, stained with DAPI).
13. In vivo anticancer efficacy […]
13.2 Calculation of the tumor growth inhibition values (TGI)
Tumor growth inhibition values (TGI) were calculated using the following formula: TGI (%) = (1 − RTVtreatment/
RTVcontrol)*100. RTV refers to relative tumor volume, representing the ratio of the volume at the end of treatment to the
volume at the beginning of treatment. […]

U87 cells = assay: Cytotoxicity (CCK8, 48 h) of drugs, PDCs, activable-Drugs and TCO, U87; format: cell-based, Human; settings: 200 μM TCO
B16F10 cells = assay: Cytotoxicity (CCK8, 48 h) of drugs, PDCs, activable-Drugs and TCO, B16F10; format: cell-based, Mouse; settings: 200 μM TCO
LX2 cells = assay: Cytotoxicity (CCK8, 48 h) of drugs, PDCs, activable-Drugs and TCO, LX2; format: cell-based, Human; settings: 200 μM TCO
SKOV3 cells = assay: Cytotoxicity (CCK8, 48 h) of drugs, PDCs, activable-Drugs and TCO, SKOV3; format: cell-based, Human; settings: 200 μM TCO
HepG2 cells = assay: Cytotoxicity (CCK8, 48 h) of drugs, PDCs, activable-Drugs and TCO, HepG2; settings: 200 μM TCO
MDA-MB-231 cells = assay: Cytotoxicity (CCK8, 48 h) of drugs, PDCs, activable-Drugs and TCO, MDA-MB-231; format: cell-based, Human; settings: 200 μM TCO
[2] = 1 h, Data 1, 50 μM, PBS pH 7.4, 10% DMSO, 37 °C
[3] = 1 h, Data 2, 50 μM, PBS pH 7.4, 10% DMSO, 37 °C
[4] = 1 h, Data 3, 50 μM, PBS pH 7.4, 10% DMSO, 37 °C

- intact (%) under 10 mM GSH ([1]; 0.5 h, Data 1, 50 μM, PBS pH 7.4, 10% DMSO, 37 °C): 53%
- intact (%) under 10 mM GSH ([1]; 0.5 h, Data 2, 50 μM, PBS pH 7.4, 10% DMSO, 37 °C): 43.8%
- intact (%) under 10 mM GSH ([1]; 0.5 h, Data 3, 50 μM, PBS pH 7.4, 10% DMSO, 37 °C): 45%
- intact (%) under 10 mM GSH [1, 2]: 19%
- intact (%) under 10 mM GSH [1, 3]: 19.7%
- intact (%) under 10 mM GSH [1, 4]: 15.4%
- intact (%) under 10 mM GSH ([1]; 1.5 h, Data 1, 50 μM, PBS pH 7.4, 10% DMSO, 37 °C): 1.3%
- intact (%) under 10 mM GSH ([1]; 1.5 h, Data 2, 50 μM, PBS pH 7.4, 10% DMSO, 37 °C): 4%
- intact (%) under 10 mM GSH ([1]; 1.5 h, Data 3, 50 μM, PBS pH 7.4, 10% DMSO, 37 °C): 2.9%
- time to degradation with 10 mM GSH ([1]; pH 7.4): ≤ 3 h
Compound: c1ccc(-c2nnc(-c3ccccn3)nn2)nc1 [PyTz, reference compound]

Compound: COCCOCCOCCOCCC(=O)NCCC1(O)CC/C=C/CCC1 (racemic) [TCO-P4]
- tumor growth / inhibition in words (B16F10 melanoma tumor): did not exhibit significant tumor inhibition; also recorded: rapid tumor growth

Compound: C1=C/CCCCCC/1 [TCO, trans-cyclooctene]
- U87 (Cell viability%) (U87 cells; Data 1): 96.2952%
- U87 (Cell viability%) (U87 cells; Data 2): 96.092%
- U87 (Cell viability%) (U87 cells; Data 3): 96.4775%
- B16F10 (Cell viability%) (B16F10 cells; Data 1): 97.5688%
- B16F10 (Cell viability%) (B16F10 cells; Data 2): 97.508%
- B16F10 (Cell viability%) (B16F10 cells; Data 3): 97.9504%
- LX2 (Cell viability%) (LX2 cells; Data 1): 99.7395%
- LX2 (Cell viability%) (LX2 cells; Data 2): 98.5462%
- LX2 (Cell viability%) (LX2 cells; Data 3): 97.8594%
- SKOV3 (Cell viability%) (SKOV3 cells; Data 1): 93.7367%
- SKOV3 (Cell viability%) (SKOV3 cells; Data 2): 92.4982%
- SKOV3 (Cell viability%) (SKOV3 cells; Data 3): 93.3583%
- HepG2 (Cell viability%) (HepG2 cells; Data 1): 94.3888%
- HepG2 (Cell viability%) (HepG2 cells; Data 2): 93.5935%
- HepG2 (Cell viability%) (HepG2 cells; Data 3): 92.7384%
- MDA-MB-231 (Cell viability%) (MDA-MB-231 cells; Data 1): 96.0832%
- MDA-MB-231 (Cell viability%) (MDA-MB-231 cells; Data 2): 97.4309%
- MDA-MB-231 (Cell viability%) (MDA-MB-231 cells; Data 3): 97.8186%

- intact (%) under 10 mM GSH [1, 2]: 86.4895%
- intact (%) under 10 mM GSH [1, 3]: 82.9483%
- intact (%) under 10 mM GSH [1, 4]: 87.2017%
- intact (%) under 10 mM GSH ([1]; 3 h, Data 1, 50 μM, PBS pH 7.4, 10% DMSO, 37 °C): 75.526%
- intact (%) under 10 mM GSH ([1]; 3 h, Data 2, 50 μM, PBS pH 7.4, 10% DMSO, 37 °C): 72.3872%
- intact (%) under 10 mM GSH ([1]; 3 h, Data 3, 50 μM, PBS pH 7.4, 10% DMSO, 37 °C): 74.6204%
- intact (%) under 10 mM GSH ([1]; 5 h, Data 1, 50 μM, PBS pH 7.4, 10% DMSO, 37 °C): 63.0897%
- intact (%) under 10 mM GSH ([1]; 5 h, Data 2, 50 μM, PBS pH 7.4, 10% DMSO, 37 °C): 68.3168%
- intact (%) under 10 mM GSH ([1]; 5 h, Data 3, 50 μM, PBS pH 7.4, 10% DMSO, 37 °C): 70.9327%
- intact (%) under 10 mM GSH ([1]; 8 h, Data 1, 50 μM, PBS pH 7.4, 10% DMSO, 37 °C): 50.7674%
- intact (%) under 10 mM GSH ([1]; 8 h, Data 2, 50 μM, PBS pH 7.4, 10% DMSO, 37 °C): 52.9065%
- intact (%) under 10 mM GSH ([1]; 8 h, Data 3, 50 μM, PBS pH 7.4, 10% DMSO, 37 °C): 52.3167%
- remained intact with 10 mM GSH ([1]; 12 h, 37 °C, 50 μM, PBS pH 7.4, 10% DMSO, HPLC–MS peak area 520 nm, mean of n = 3): 38%
- intact (%) under 10 mM GSH ([1]; 12 h, Data 1, 50 μM, PBS pH 7.4, 10% DMSO, 37 °C): 38.6932%
- intact (%) under 10 mM GSH ([1]; 12 h, Data 2, 50 μM, PBS pH 7.4, 10% DMSO, 37 °C): 39.3861%
- intact (%) under 10 mM GSH ([1]; 12 h, Data 3, 50 μM, PBS pH 7.4, 10% DMSO, 37 °C): 35.5445%
Compound: Cc1nnc(-c2ncccn2)nn1 [PmTz, pyrimidine tetrazine, reference compound]
